# Source: ChEMBL document CHEMBL5724564, “Patient-derived NASH model to assess the effects of chemical probes on hepatocyte regenerations” (2024)
# System: Hepatocyte spheroids
# Test: Cell viability is assessed by cellular ATP assay using CellTiter-Glo Luminescent kit. Viability is expressed as average RLU from biological replicates and normalized to negative control.Toxicity is defined as those with normalized ATP significantly less than 80 percent of the negative control.
# Assay type: functional, Homo sapiens
# Parameters: unit not given here
# Conditions: not given
row,Compound,Proliferation
1,CNC(=O)Nc1ccc2c(c1)CC[C@@]21OC(=O)N(CC(=O)N(Cc2ccc(F)cc2)[C@@H](C)C(F)(F)F)C1=O [A-485],0.02668
2,CN(C)C/C=C/C(=O)Nc1cc2c(Nc3ccc(F)c(Cl)c3)ncnc2cc1O[C@H]1CCOC1.O=C(O)/C=C\C(=O)O.O=C(O)/C=C\C(=O)O [AFATINIB DIMALEATE],0.1122
3,O=C(N1CCS(=O)(=O)CC1)N1C[C@H](c2ccc(OC(F)(F)F)cc2)C[C@H](c2nc(C3CC3)no2)C1 [BAY-386],0.02871
4,CC(=O)C1=C(C)N(c2cccc(C(F)(F)F)c2)C(=O)N[C@@H]1c1ccc(C#N)nc1 [BAY-678],0.03291
5,Cc1c(NC(=O)c2cc(C(N)=O)nc3cc(F)ccc23)c(C(F)(F)F)nn1Cc1ccc(C#N)cc1 [BAY-876],0.01262
6,O=C(O)[C@H]1[C@H](Cn2nnc3ccccc3c2=O)CC[C@@H]1C(=O)c1ccc(OCCC2CCOCC2)cc1 [BAY-7598],0.03535
7,CCOCCn1cc(C(=O)Nc2ccc(-n3nc(-c4cccnc4)cc3C(F)(F)F)cn2)ccc1=O [BI 1935],0.3766
8,CC(=O)N1CCC(c2ccc(C(=O)NC(=N)N)cc2C(F)(F)F)CC1 [BI 9627],0.09817
9,CCC(=O)N[C@H]1CC[C@@H](C(=O)N(C)c2ccc(-c3nc4ccccc4o3)cc2)C1 [BI 99179],0.7724
10,CN(C)C(=O)Cn1cc(-c2nc([C@@](C)(c3ccc(-c4cnc(N)nc4)cc3)C3CC3)no2)cn1 [BI 665915],0.119
11,Cn1cnc2c1c(=O)n(CCCn1c(=O)c3c(ncn3C)n(C)c1=O)c(=O)n2C [BISDIONIN C],0.03665
12,O=c1nc(-c2ccccn2)sc2ccccc12 [BTZO-1],0.08275
13,CNC(=O)c1ccc(Nc2ncc(C(F)(F)F)c(NCc3nccnc3N(C)S(C)(=O)=O)n2)cc1 [DEFACTINIB],0.1091
14,O=C(O)Cc1ccccc1Nc1c(Cl)cccc1Cl [DICLOFENAC],0.2575
15,C[C@@H](NC(=O)Nc1cc2[nH]ncc2c(CO)n1)c1ccccc1 [ERKi],0.06922
16,CC(C)c1ccc(Nc2nccc(-c3cnn4ncccc34)n2)cc1 [GW805758X],0.2702
17,CN(Cc1cnc2nc(N)nc(N)c2n1)c1ccc(C(=O)N[C@@H](CCC(=O)O)C(=O)O)cc1 [METHOTREXATE],0.002627
18,O=C(NOC[C@H](O)CO)c1ccc(F)c(F)c1Nc1ccc(I)cc1F [MIRDAMETINIB],0
19,O=S(=O)(NC1CCC(c2cc(F)ccc2F)(S(=O)(=O)c2ccc(Cl)cc2)CC1)C(F)(F)F (stereo not drawn) [MRK-560],0.1212
20,Cc1cc(Nc2nccc(C)n2)cc(-c2cnc([C@@]3(O)CC[C@H](C(=O)O)C(C)(C)C3)s2)c1 [MRL-SYKi],0
21,CC(=O)Nc1c(C(C)=O)c(=O)n(C)c2nc(-c3ccc(Cl)cc3Cl)c(-c3ccc(Cl)cc3)cc12 [NAPHTHYRIDINONE],0.005874
22,Cn1c(=O)c(Oc2ccc(F)cc2F)cc2cnc(NC(CCO)CCO)nc21 [PAMAPIMOD],0.003154
23,Cn1cnc2c(F)c(Nc3ccc(Br)cc3Cl)c(C(=O)NOCCO)cc21 [SELUMETINIB],0.04298
24,Cn1cc(-c2ccc3nnc(Sc4ccc5ncccc5c4)n3n2)cn1 [SGX-523],0.3569
25,O=C1c2ccc(Nc3ccc(F)cc3F)cc2CCc2ccc(OC[C@H](O)CO)cc21 [Skepinone-L],0.2651
26,COc1cccc(CNC(=O)c2nc3scc(COCc4ccc(C(=O)O)cc4)c3c(=O)[nH]2)c1 [T-26c],0.5771
27,Nc1nc2[nH]cnc2c(=S)[nH]1 [THIOGUANINE],0.05104
28,C[C@@H]1CCN(C(=O)CC#N)C[C@@H]1N(C)c1ncnc2[nH]ccc12.O=C(O)CC(O)(CC(=O)O)C(=O)O [TOFACITINIB CITRATE],0.01527
29,CC(=O)Nc1cccc(-n2c(=O)n(C3CC3)c(=O)c3c(Nc4ccc(I)cc4F)n(C)c(=O)c(C)c32)c1 [TRAMETINIB],0
30,NC(=O)c1ccc(N(C(N)=O)c2c(F)cccc2F)nc1-c1ccc(F)cc1F [VX-702],0.02591

# Same assay, conditions: Concentration range 10nM-10uM
row,Compound,Proliferation
1,Cc1cn(CCN2CCN(c3ccccc3-c3cc(C#N)cc(C(=O)NCCCN4CCCC4)c3)CC2)c2ccccc12,0.05285
2,Cc1cc2nc(N3CCC(C(=O)NC4CCCC4)CC3)n(C(C)C)c2cc1C,0.1009
3,CCN(C(=O)CO)[C@H]1CN(/C(=N\C#N)Nc2cccc(OC(F)F)c2)N=C1c1ccc(Cl)c(Cl)c1,0.05466
